This assay deals with 5-hydroxytryptamine receptor 2A (Rattus norvegicus, UniProt P14842). Briefly: Tested in vitro for its ability to inhibit [3H]ketanserin binding to 5-hydroxytryptamine 2A receptor in rat frontal cortex membranes. Format: cell membranes, Membrane.
Sequence of 5-hydroxytryptamine receptor 2A (P14842 whole entry): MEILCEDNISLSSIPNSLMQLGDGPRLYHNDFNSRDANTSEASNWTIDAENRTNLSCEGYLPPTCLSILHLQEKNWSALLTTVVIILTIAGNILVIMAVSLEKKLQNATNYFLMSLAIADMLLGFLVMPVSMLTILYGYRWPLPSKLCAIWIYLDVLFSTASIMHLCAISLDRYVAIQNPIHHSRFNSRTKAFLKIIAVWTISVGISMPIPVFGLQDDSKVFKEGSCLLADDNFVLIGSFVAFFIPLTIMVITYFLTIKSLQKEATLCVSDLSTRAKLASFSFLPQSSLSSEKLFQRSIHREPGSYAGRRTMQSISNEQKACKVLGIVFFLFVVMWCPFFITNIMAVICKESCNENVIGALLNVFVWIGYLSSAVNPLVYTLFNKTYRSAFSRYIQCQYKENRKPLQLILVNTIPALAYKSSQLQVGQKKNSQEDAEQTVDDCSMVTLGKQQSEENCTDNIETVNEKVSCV

Compound `CCc1c(C)[nH]c2c1C(=O)CC(CN1CCC(C(=O)c3ccc(F)cc3)CC1)C2` (centres undefined) had a Ki of 6.17 nM.
To `CCc1c(C)[nH]c2c1C(=O)CC(CN1CCC(c3noc4cc(F)ccc34)CC1)C2` (centres undefined) belongs 5.01 nM; to `CCc1c(C)[nH]c2c1C(=O)CC(CN1CCN(CCCC(=O)c3ccc(F)cc3)CC1)C2` (centres undefined), 398 nM.
As for `CCc1c(C)[nH]c2c1C(=O)CC(CN1CCN(c3ccccc3OC)CC1)C2` (centres undefined), the figure is 282 nM.

These data come from ChEMBL document CHEMBL1129897 (Bioorg Med Chem Lett, 1997).
